# Laboratory results published in ChEMBL document CHEMBL3994622, “Design and synthesis of new RAF kinase-inhibiting antiproliferative quinoline derivatives. Part 2: Diarylurea derivatives” (Eur J Med Chem, 2017).
# Experiments:
# Format in all cases: functional
# NCI-H23 = experiment: Growth inhibition of human NCI-H23 cells assessed as cell growth at 10 uM incubated for 48 hrs by sulforhodamine B assay relative to control; details: NCI-H23, 48 h, read-out: Activity
# SR = experiment: Growth inhibition of human SR cells assessed as cell growth at 10 uM incubated for 48 hrs by sulforhodamine B assay relative to control; details: read-out: Activity
# MOLT-4 [1] = experiment: Growth inhibition of human MOLT4 cells assessed as cell growth at 10 uM incubated for 48 hrs by sulforhodamine B assay relative to control; details: MOLT-4, 48 h, read-out: Activity
# CCRF-CEM = experiment: Growth inhibition of human CCRF-CEM cells assessed as cell growth at 10 uM incubated for 48 hrs by sulforhodamine B assay relative to control; details: read-out: Activity
# HL-60(TB) = experiment: Growth inhibition of human HL-60(TB) cells assessed as cell growth at 10 uM incubated for 48 hrs by sulforhodamine B assay relative to control; details: HL-60, 48 h, read-out: Activity
# COLO 205 = experiment: Growth inhibition of human COLO205 cells incubated for 48 hrs by sulforhodamine B assay; details: COLO 205, 48 h; for CC50: read-out: LC50 (the source's name)
# A498 = experiment: Growth inhibition of human A498 cells assessed as cell growth at 10 uM incubated for 48 hrs by sulforhodamine B assay relative to control; details: A498, 48 h, read-out: Activity
# NCI-H522 = experiment: Growth inhibition of human NCI-H522 cells assessed as cell growth at 10 uM incubated for 48 hrs by sulforhodamine B assay relative to control; details: NCI-H522, 48 h, read-out: Activity
# KM12 = experiment: Growth inhibition of human KM12 cells assessed as cell growth at 10 uM incubated for 48 hrs by sulforhodamine B assay relative to control; details: KM12, 48 h, read-out: Activity
# HCT-116 = experiment: Growth inhibition of human HCT116 cells assessed as cell growth at 10 uM incubated for 48 hrs by sulforhodamine B assay relative to control; details: HCT-116, 48 h, read-out: Activity
# CAKI-1 = experiment: Growth inhibition of human Caki1 cells assessed as cell growth at 10 uM incubated for 48 hrs by sulforhodamine B assay relative to control; details: CAKI-1, 48 h, read-out: Activity
# UACC-257 = experiment: Growth inhibition of human UACC257 cells incubated for 48 hrs by sulforhodamine B assay; details: UACC-257, 48 h; for CC50: read-out: LC50 (the source's name)
# ACHN = experiment: Growth inhibition of human ACHN cells assessed as cell growth at 10 uM incubated for 48 hrs by sulforhodamine B assay relative to control; details: read-out: Activity
# IGROV-1 [2] = experiment: Growth inhibition of human IGROV1 cells assessed as cell growth at 10 uM incubated for 48 hrs by sulforhodamine B assay relative to control; details: IGROV-1, 48 h, read-out: Activity
# OVCAR-8 = experiment: Growth inhibition of human OVCAR8 cells incubated for 48 hrs by sulforhodamine B assay; details: OVCAR-8, 48 h; for CC50: read-out: LC50 (the source's name)
# SF-268 [3] = experiment: Growth inhibition of human SF268 cells assessed as cell growth at 10 uM incubated for 48 hrs by sulforhodamine B assay relative to control; details: SF-268, 48 h, read-out: Activity
# Hs-578T = experiment: Growth inhibition of human Hs 578T cells assessed as cell growth at 10 uM incubated for 48 hrs by sulforhodamine B assay relative to control; details: read-out: Activity
# SF-268 [4] = experiment: Growth inhibition of human SF268 cells incubated for 48 hrs by sulforhodamine B assay; details: SF-268, 48 h
# A549 = experiment: Growth inhibition of human A549/ATCC cells assessed as cell growth at 10 uM incubated for 48 hrs by sulforhodamine B assay relative to control; details: A549, 48 h, read-out: Activity
# MOLT-4 [5] = experiment: Growth inhibition of human MOLT4 cells incubated for 48 hrs by sulforhodamine B assay; details: MOLT-4, 48 h
# NCI-H460 = experiment: Growth inhibition of human NCI-H460 cells assessed as cell growth at 10 uM incubated for 48 hrs by sulforhodamine B assay relative to control; details: NCI-H460, 48 h, read-out: Activity
# SK-MEL-28 = experiment: Growth inhibition of human SK-MEL-28 cells incubated for 48 hrs by sulforhodamine B assay; details: SK-MEL-28, 48 h; for CC50: read-out: LC50 (the source's name)
# NCI-H322M = experiment: Growth inhibition of human NCI-H322M cells incubated for 48 hrs by sulforhodamine B assay; details: for CC50: read-out: LC50 (the source's name)
# OVCAR-5 = experiment: Growth inhibition of human OVCAR5 cells assessed as cell growth at 10 uM incubated for 48 hrs by sulforhodamine B assay relative to control; details: OVCAR-5, 48 h, read-out: Activity
# SNB-19 = experiment: Growth inhibition of human SNB19 cells assessed as cell growth at 10 uM incubated for 48 hrs by sulforhodamine B assay relative to control; details: SNB-19, 48 h, read-out: Activity
# SK-OV-3 = experiment: Growth inhibition of human SKOV3 cells assessed as cell growth at 10 uM incubated for 48 hrs by sulforhodamine B assay relative to control; details: SK-OV-3, 48 h, read-out: Activity
# IGROV-1 [6] = experiment: Growth inhibition of human IGROV1 cells incubated for 48 hrs by sulforhodamine B assay; details: IGROV-1, 48 h; for CC50: read-out: LC50 (the source's name)
# NCI-H226 = experiment: Growth inhibition of human NCI-H226 cells assessed as cell growth at 10 uM incubated for 48 hrs by sulforhodamine B assay relative to control; details: NCI-H226, 48 h, read-out: Activity
# MDA-MB-231 = experiment: Growth inhibition of human MDA-MB-231 cells assessed as cell growth at 10 uM incubated for 48 hrs by sulforhodamine B assay relative to control; details: MDA-MB-231, 48 h, read-out: Activity
# M14 = experiment: Growth inhibition of human M14 cells assessed as cell growth at 10 uM incubated for 48 hrs by sulforhodamine B assay relative to control; details: M14, 48 h, read-out: Activity
# UACC-62 = experiment: Growth inhibition of human UACC62 cells assessed as cell growth at 10 uM incubated for 48 hrs by sulforhodamine B assay relative to control; details: UACC-62, 48 h, read-out: Activity
# SN12C = experiment: Growth inhibition of human SN12C cells assessed as cell growth at 10 uM incubated for 48 hrs by sulforhodamine B assay relative to control; details: read-out: Activity
# MDA-MB-468 = experiment: Growth inhibition of human MDA-MB-468 cells assessed as cell growth at 10 uM incubated for 48 hrs by sulforhodamine B assay relative to control; details: MDA-MB-468, 48 h, read-out: Activity
compound,measurement,setting,value
Cc1nc2cc(O)c(O)cc2cc1Oc1ccc(NC(=O)Nc2ccc(Cl)c(Cl)c2)cc1,growth at 10 µM,NCI-H23,62.8%
same,growth at 10 µM,SR,8.92%
same,growth at 10 µM,MOLT-4 [1],12.6%
same,growth at 10 µM,CCRF-CEM,19.9%
same,growth at 10 µM,HL-60(TB),96.8%
same,GI50,COLO 205,10.3 µM
same,TGI,COLO 205,> 32.5 µM
same,CC50,COLO 205,> 32.5 µM
same,growth at 10 µM,A498,118%
same,growth at 10 µM,NCI-H522,1.87%
same,growth at 10 µM,KM12,74.7%
same,growth at 10 µM,HCT-116,44.6%
same,growth at 10 µM,CAKI-1,27.3%
same,GI50,UACC-257,7.27 µM
same,TGI,UACC-257,21.3 µM
same,CC50,UACC-257,> 32.5 µM
same,growth at 10 µM,ACHN,39%
same,growth at 10 µM,IGROV-1 [2],67.1%
same,GI50,OVCAR-8,5.77 µM
same,TGI,OVCAR-8,> 32.5 µM
same,CC50,OVCAR-8,> 32.5 µM
same,growth at 10 µM,SF-268 [3],65.5%
same,growth at 10 µM,Hs-578T,105%
same,GI50,SF-268 [4],8.45 µM
same,LC50 (50% lethal concentration),SF-268 [4],> 32.5 µM
same,TGI,SF-268 [4],> 32.5 µM
same,growth at 10 µM,A549,50.5%
same,GI50,MOLT-4 [5],8.87 µM
same,LC50,MOLT-4 [5],> 32.5 µM
same,TGI,MOLT-4 [5],> 32.5 µM
same,growth at 10 µM,NCI-H460,62.1%
same,GI50,SK-MEL-28,9 µM
same,TGI,SK-MEL-28,30.1 µM
same,CC50,SK-MEL-28,> 32.5 µM
same,GI50,NCI-H322M,14.1 µM
same,TGI,NCI-H322M,> 32.5 µM
same,CC50,NCI-H322M,> 32.5 µM
same,growth at 10 µM,OVCAR-5,122%
same,growth at 10 µM,SNB-19,49%
same,growth at 10 µM,SK-OV-3,45%
same,GI50,IGROV-1 [6],12.3 µM
same,TGI,IGROV-1 [6],> 32.5 µM
same,CC50,IGROV-1 [6],> 32.5 µM
same,growth at 10 µM,NCI-H226,38.3%
same,growth at 10 µM,MDA-MB-231,45%
same,growth at 10 µM,M14,80.8%
same,growth at 10 µM,UACC-62,84.5%
same,growth at 10 µM,SN12C,85.7%
COc1cc2cc(Oc3ccc(NC(=O)Nc4cc(C(F)(F)F)cc(C(F)(F)F)c4)cc3)c(C)nc2cc1OC,growth at 10 µM,NCI-H23,2.28%
same,growth at 10 µM,CCRF-CEM,0.19%
same,GI50,COLO 205,1.79 µM
same,TGI,COLO 205,3.58 µM
same,CC50,COLO 205,7.18 µM
same,growth at 10 µM,A498,-11.5%
same,growth at 10 µM,NCI-H522,-33.4%
same,growth at 10 µM,KM12,5.61%
same,growth at 10 µM,HCT-116,3.73%
same,growth at 10 µM,CAKI-1,6.4%
same,GI50,UACC-257,2.48 µM
same,TGI,UACC-257,5.49 µM
same,CC50,UACC-257,20 µM
same,growth at 10 µM,ACHN,5.82%
same,growth at 10 µM,IGROV-1 [2],19.9%
same,GI50,OVCAR-8,1.63 µM
same,TGI,OVCAR-8,4.22 µM
same,CC50,OVCAR-8,> 100 µM
same,growth at 10 µM,SF-268 [3],15.3%
same,growth at 10 µM,Hs-578T,-10.7%
same,GI50,SF-268 [4],1.62 µM
same,LC50 (50% lethal concentration),SF-268 [4],8.37 µM
same,TGI,SF-268 [4],3.68 µM
same,growth at 10 µM,A549,5.93%
same,GI50,MOLT-4 [5],1.13 µM
same,LC50,MOLT-4 [5],> 100 µM
same,TGI,MOLT-4 [5],4.04 µM
same,growth at 10 µM,NCI-H460,7%
same,GI50,SK-MEL-28,1.19 µM
same,TGI,SK-MEL-28,3.09 µM
same,CC50,SK-MEL-28,8.03 µM
same,GI50,NCI-H322M,1.16 µM
same,TGI,NCI-H322M,2.57 µM
same,CC50,NCI-H322M,5.7 µM
same,growth at 10 µM,OVCAR-5,14.6%
same,growth at 10 µM,SNB-19,15.5%
same,growth at 10 µM,SK-OV-3,-1.05%
same,GI50,IGROV-1 [6],0.51 µM
same,TGI,IGROV-1 [6],2.3 µM
same,CC50,IGROV-1 [6],8.68 µM
same,growth at 10 µM,NCI-H226,-10.2%
same,growth at 10 µM,MDA-MB-231,-36.1%
same,growth at 10 µM,MDA-MB-468,-8.12%
same,growth at 10 µM,M14,9.04%
same,growth at 10 µM,UACC-62,-34.6%
same,growth at 10 µM,SN12C,7.69%
